Where two headings read alike, the source gives them in different places.
How the values were obtained:
[1] = tested on: pressor response to angiotensin II; experiment: inhibition of pressor response to angiotensin II in conscious rats; assay type: in vivo; conditions: Rattus norvegicus, intravenous angiotensin II 250 mg/kg [sic], read-out: IC50 (dose needed to produce 50% inhibition of the control response to angiotensin II)
Experimental: (§1) Angiotensin II antagonist activity of the compounds of Formulas (I) is assessed by in vitro and in vivo methods. In vitro antagonist activity is determined by the ability of the compounds to compete with ^125 I-angiotensin II for binding to vascular angiotensin II receptors and by their ability to antagonize the contractile response to angiotensin II in the isolated rabbit aorta. In vivo activity is evaluated by the efficacy of the compounds to inhibit the pressor response to exogenous angiotensin II in conscious rats and to lower blood pressure in a rat model of renin dependent hypertension.
Rats are prepared with indwelling femoral arterial and venous catheters and a stomach tube (Gellai et al., KidneyInt. 15:419, 1979). Two to three days following surgery the rats are placed in a restrainer and blood pressure is continuously monitored from the arterial catheter with a pressure transducer and recorded on a polygraph. The change in mean arterial pressure in response to intravenous injections of […] angiotensin II is compared at various time points prior to and following the administration of the compounds intravenously or orally at doses of 3 to 300 mg/kg. The dose of compound needed to produce 50% inhibition of the control response to angiotensin II IC50) is used to estimate the potency of the compounds.

[2] = tested on: conscious rats made renin dependent hypertensive by ligation of the left renal artery; experiment: antihypertensive activity in conscious renin dependent hypertensive (renal artery ligated) rats; assay type: in vivo; conditions: Rattus norvegicus, 7-8 days after ligation, read-out: IC30 (dose needed to reduce mean arterial pressure by 30 mm Hg)
Experimental: as §1
The antihypertensive activity of the compounds is measured by their ability to reduce mean arterial pressure in conscious rats made renin dependent hypertensive by ligation of the left renal artery (Cangiano et al., J. Pharmacol. Exp. Ther. 208:310, 1979). Renal artery ligated rats are prepared with indwelling catheters as described above. Seven to eight days following renal artery ligation, the time at which plasma renin levels are highest, the conscious rats are placed in restrainers and mean arterial pressure is continuously recorded prior to and following the administration of the compounds intravenously or orally. The dose of compound needed to reduce mean arterial pressure by 30 mm Hg (IC30) is used as an estimate of potency. […]

`CCCCc1ncc(CN[C@@](C)(Cc2cccs2)C(=O)O)n1Cc1ccccc1Cl` [Example 6, N-[{1-[(2-chlorophenyl)methyl]-2-n-butyl-1H-imidazol-5-yl}methyl]-α-methyl-β-(2-thienyl)alanine] showed an ED50 ([1]; i.v.) of 11 mg/kg, an ED50 ([1]; po, orally) of 45 mg/kg and an ED (30 mm Hg) ([2]; iv) of 15 mg/kg. For the same molecule, the ED (30 mm Hg) ([2]; po, orally) was 70 mg/kg.
